Results reported in patent US9808434B2, “Compound for treating cancer and diabetes” (CITY OF HOPE, priority 2011, dated 2017).

Experiments:
3T3-L1 cells [1] = test: Adipocyte differentiation, Oil Red O staining; assay type: cell-based, mouse; conditions: preadipocytes 7 days in differentiating media (DM) + compound
Experimental: Two-day post-confluent 3T3-L1 preadipocyte cells were allowed to differentiate for 7 days in the presence of nothing, DM only, DM+ a test compound (COH-SR1, COH-SR2, COH-SR3, COH-SR4, COH-SR7, LR23 or LR59), or DM+ a positive control (TSA, C75, or Apicidin).
(§1) 3T3-L1 preadipocytes cells were treated with differentiating media (DM) with COH-SR4 (1 μM, 3 μM, or 5 μM) or without for 7 days. […] As used in FIG. 9C, U=undifferentiated, D=differentiated with cocktail media.

3T3-L1 cells [2] = test: Intracellular triglyceride contents, AdipoRed Assay; assay type: cell-based, mouse; conditions: 7 days in DM + compound
Experimental: Intracellular triglyceride contents were measured using AdipoRed Assay™ and the results were shown in relative fluorescence units (RFU) in FIG. 5.
as §1

[3] = system: fully differentiated adipocytes; test: Dedifferentiation of fully differentiated adipocytes, Oil Red O staining; assay type: cell-based; conditions: differentiated 7 days, treated additional 3 days
Experimental: Fully differentiated adipocyte cells were differentiated for 7 days and were treated for additional 3 days with DM+ a test compound (COH-SR3, COH-SR7, or LR59), DM+ a positive control (Apicidin, TSA or C75), DM, or nothing (control).

U251 = test: Glioma ATP viability assay, U251; assay type: cell-based; conditions: Table 2
Experimental: Cells of each cell line (U251, U87, PBT-017, PBT018, PBT003 and PBT028) were treated with various concentrations (0˜100 μM) of COH-SR4 for 72 hours. Cell viabilities were determined by ATP viability assays. Data were represented as a ratio to vehicle (DMSO) control, and plotted as mean±SEM (n=12) obtained from 2˜3 experiments (FIG. 34A).
Cells of each cell line (U87, U251, PBT003 and PVT-017) were treated with various concentrations (0˜100 μM) of COH-SR4 for 72 hours. Cell viabilities were determined by ATP viability assays. Data were represented as a ratio to vehicle (DMSO) control, and plotted as mean±SEM (n=12) obtained from 2-3 experiments (FIG. 34B).
Cells of each cell line were treated with various concentrations (0˜100 μM) of COH-SR4 or various concentrations (0˜1000 μM) of TMZ for 72 hours. Cell viabilities were determined by ATP viability assays. Data were represented as a ratio to untreated cells as control, and plotted as mean±SEM (n=12) obtained from 2˜3 experiments (FIGS. 43A-B).

[4] = system: undifferentiated 3T3-L1 cells; test: Preadipocyte viability, MTT assay; assay type: cell-based, mouse; conditions: 3 days, 2.5-25 μM
Experimental: Undifferentiated 3T3-LI cells were treated with COH-SR2, COH-SR3, COH-SR4, COH-SR7, LR23 or LR59 for 3 days at a concentration of 2.5 μM, 5 μM, 10 μM, 15 μM, 20 μM, or 25 μM. The cell viability for each treatment was determined by MTT assay (FIG. 7).

[5] = system: NCI-60 human tumor cell lines; test: NCI-60 DTP Human Tumor Cell Line Drug Screening; assay type: cell-based; conditions: leukemia, NSCLC, colon, CNS, melanoma, ovarian, renal, prostate, breast lines
From the text: Moreover, preliminary data from the NCI-60 DTP Human Tumor Cell Line Drug Screening (http://dtp.nci.nih.gov/branches/btb/ivclsp.html) further confirmed the observations on these COH-SR compounds. […] A value of 100 meant no growth inhibition. A value of 20 meant 80% growth inhibition. A value of 0 meant no net growth over the course of the experiment. A value of −40 meant 40% lethality. A value of −100 meant all cells were dead.

HL-60 cells [6] = test: Differentiation of HL-60 cells (Giemsa-Wright, NBT, CD11b/CD14); assay type: cell-based, human; conditions: 48 hours, 2-10 μM
Experimental: HL-60 cells were incubated with a test compound at various concentrations (2˜10 μM), DMSO, or without any test compound for 48 hours, and then examined for morphologic changes by Giemsa-Wright stain. The results were observed microscopically and shown in FIG. 13 at a magnification of ×400. […] Such results were similar to cells treated with DMSO or all-trans retinoic acid (ATRA), wherein DMSO or ATRA terminally differentiated HL-60 cells into myeloid cells (FIG. 13).
HL-60 cells (2.5×10^5) were treated with or without a test compound for 48 hours and then stained with NBT, wherein positively-stained cells appeared as purple black (FIG. 14A). NBT positive cells were counted and the overall percentage was calculated based on 200 total cells counted for each treatment. Three˜four independent experiments were carried out, and data are shown as mean±SE (FIG. 14B). This measurement of “oxidative burst” by the NBT assay is a well-known and extensively tested functional marker of HL-60 cell differentiation.
HL-60 cells (2.5×10^5) were incubated with a test compound (COH-SR4 or COH-SR9) at a concentration of 0.5 μM, 1 μM, 2 μM, or 3 μM, or without any COH-SR compound for 48 hours and then assessed for the surface expression of CD11b (FIG. 14C) and CD14 (FIG. 14D) by flow cytometry, respectively. Three-four independent experiments were carried out, and data are shown as mean±SE (FIGS. 14C and 14D).

HL-60 cells [7] = test: HL-60 cell viability, MTT assay
Experimental: Three independent experiments were carried out with 3 duplications each, and data are shown as mean±SE.

[8] = system: HMLE breast cancer cell line; test: HMLE viability, DIMSCAN assay; assay type: cell-based, human; conditions: 3 days, 2-50 μM
Experimental: The effects of COH-SR compounds on breast cancer cells were investigated. Cells from 4T1 or HMLE breast cancer cell line were seeded in 96-well plates (about 2000 cells/well), allowed to proliferate for one day, treated with a COH-SR compound, doxorubicin, paclitaxel, cisplatin, or nothing (control) at a specific dose (3 wells for each treatment) and assayed for cell viability 3 days after using DIMSCAN assay. COH-SR3, COH-SR4, COH-SR9, doxorubicin, paclitaxel, and cisplatin were used at a dosage of 40 nM, 200 nM, 1 μM, 2 μM, 10 μM, or 50 μM for 4T1 breast cancer cell lines. COH-SR14 was used at a dosage of 40 nM, 200 nM, 1 μM, 2 μM, or 10 μM for 4T1 breast cancer cell lines. COH-SR3, COH-SR4, COH-SR9, doxorubicin, paclitaxel, and cisplatin were used at a dosage of 2 μM, 10 μM, or 50 μM for HMLE breast cancer cell lines. COH-SR14 was used at a dosage of 2 μM, or 10 μM for HMLE breast cancer cell lines.

AMPK = AMPK activation in Hela cells, Western blot; assay type: cell-based; conditions: 1 hour, 1, 3 or 5 μM
Experimental: Activation of AMPK was associated with the phosphorylation of the α-subunit on Thr-172 of as assessed using phospho-specific antibodies (FIGS. 10A-B). AMPK activation also leads to the increased phosphorylation of the target protein acetyl-CoA carboxylase (ACC) (FIG. 10B).
Cells of each cell lines (Hela, HL-60, and 3T3-L1) were treated for 1 hour with a test compound (COH-SR4, COH-SR9, COH-SR16, or COH-SR18) at a concentration of 1 μM, 3 μM, or 5 μM, or AICAR (5-aminoimidazole-4-carboxamideriboside, an AMPK agonist used as positive control) at a concentration of 500 μM, or none of the above (the untreated cells as negative control). Total cell lysates from the untreated cells and the cells treated with a test compound or AICAR were analyzed by Western blot assay using specific antibodies against phospho-AMPK, phospho-ACC, total AMPK and total ACC.

| Molecule | differentiation and accumulation of lipid droplets (Oil Red O staining) (3T3-L1 cells [1]) | intracellular triglyceride contents (AdipoRed Assay) (3T3-L1 cells [2]) | activity in NCI-60 screening [5] | also measured |
| --- | --- | --- | --- | --- |
| 1-(4-chlorobenzyl)-3-dichlorophenyeureido)-4-phenoxyisobutyric acid [LR59] | dose-dependently inhibited differentiation and accumulation of lipid droplets | dose-dependently reduced | – | dedifferentiation of fully differentiated adipocytes [3]: induced dedifferentiation of fully differentiated adipocytes |
| O=c1[nH]cc(F)c(=O)[nH]1 [5-FU] | – | – | – | IC50 (U251; 72 hours): 61 µM |
| COc1cc(CCC(=O)CC(=O)CCc2ccc(OC(C)=O)c(OC)c2)ccc1OC(C)=O [COH-SR1, 1,7-bis(4′-acetoxy-3′-methoxyphenyl)-3,5-heptadione] | dose-dependently inhibited differentiation and accumulation of lipid droplets | dose-dependently reduced | – | – |
| COc1cc(/C=C/C(=O)/C=C(O)/C=C/c2ccc(OC(C)=O)c(OC)c2)ccc1O [COH-SR2, (1E,4Z,6E)-7-(4″-acetoxy-3″-methoxyphenyl)-5-hydroxy-1-(4′-hydroxy-3′-methoxyphenyl)hepta-1,4,6-trien-3-one] | dose-dependently inhibited differentiation and accumulation of lipid droplets | dose-dependently reduced | active against | growth of undifferentiated preadipocytes (MTT) [4]: inhibited growth of undifferentiated 3T3-L1 cells |
| COc1ccc(-c2ccccc2)cc1NC(=O)Nc1cc(Cl)cc(Cl)c1 [COH-SR6, 1-(3,5-dichlorophenyl)-3-(4-methoxy-[1,1′-bisphenyl]-3-yl) urea] | – | – | active against | morphologic changes (Giemsa-Wright stain), myeloid differentiation (HL-60 cells [6]): exhibited cytoplasmic vacuolation, reduced nucleus-to-cytoplasmic ratio, and absence of prominent nucleoli; cytotoxicity and cell proliferation (HL-60 cells [7]; 48 hours, 1-15 μM): exhibited cytotoxicity and prevented cell proliferation of HL-60 leukemia cells |
| CC(C)(Oc1ccc(NC(=O)Nc2cc(Cl)cc(Cl)c2)cc1)C(=O)Nc1ccc(C(=O)O)cc1 [COH-SR7, 4-[(3,5-dichlorophenylureido)phenoxyisobutyril]-4-aminobenzoic acid] | dose-dependently inhibited differentiation and accumulation of lipid droplets | dose-dependently reduced | – | dedifferentiation of fully differentiated adipocytes [3]: induced dedifferentiation of fully differentiated adipocytes; growth of undifferentiated preadipocytes (MTT) [4]: inhibited growth of undifferentiated 3T3-L1 cells; morphologic changes (Giemsa-Wright stain), myeloid differentiation (HL-60 cells [6]): exhibited cytoplasmic vacuolation, reduced nucleus-to-cytoplasmic ratio, and absence of prominent nucleoli |
| Cc1c(Cl)cc(NC(=O)Nc2cc(Cl)cc(Cl)c2)cc1Cl [COH-SR14, 1-(3,5-dichloro-4-methylphenyl)-3-(3,5-dichlorophenyl) urea] | – | – | active against | cytotoxic effects compared with doxorubicin, paclitaxel and cisplatin (FIG. 30) [8]: more potent cytotoxic effects; IC50 (HL-60 cells [7]; Homo sapiens, HL-60, 48 h): < 5 µM |
| O=C(Nc1cc(Cl)cc(Cl)c1)Nc1cc(Cl)nc(Cl)c1 [COH-SR16, 1-(2,6-dichloropyridin-4-yl)-3-(3,5-dichlorophenyl) urea] | – | – | active against | AMPK activation (AMPK): Dose-dependent AMPK activation |
| O=C(Nc1cc(Cl)cc(Cl)c1)Nc1ccnc(Cl)n1 [COH-SR18, 1-(2-chloropyrimidin-4-yl)-3-(3,5-dichlorophenyl) urea] | – | – | – | AMPK activation (AMPK): Dose-dependent AMPK activation |
| CCc1c2c(nc3ccc(OC(=O)N4CCC(N5CCCCC5)CC4)cc13)-c1cc3c(c(=O)n1C2)COC(=O)[C@]3(O)CC [CPT-11, irinotecan] | – | – | – | IC50 (U251; Homo sapiens, U-251, 72 h): 41.1 µM |
| CC(C)(Oc1ccc(NC(=O)Nc2cc(Cl)cc(Cl)c2)cc1)C(=O)NC1(C(=O)O)CCCCC1 [LR23, 4-(3,5-dichlorophenylureido)phenoxyisobutyryl-1-amidocyclohexane-lcarboxylic acid] | dose-dependently inhibited differentiation and accumulation of lipid droplets | dose-dependently reduced | – | – |
| CCc1c2c(nc3ccc(O)cc13)-c1cc3c(c(=O)n1C2)COC(=O)[C@]3(O)CC [SN-38, 7-ethyl-10-hydroxy-camptothecin] | – | – | – | IC50 (U251; 72 hours): 0.04 µM |
